Source: patent US20220401414A1, “TREATMENT AND PREVENTION OF A NEURODEGENERATIVE DISORDER” (Inflazome Limited, priority 2019, published 2022)

Columns and labels:
[1] = Study A: blood-brain barrier penetration, striatal MetaQuant microdialysis in healthy mice after oral dosing; type: in vivo, C57B1/6 mice; conditions: for average peak levels in left and right striatal dialysate: MetaQuant dialysate, not corrected for recovery; for time of average peak levels after compound administration: striatal dialysate
Method: The present study was designed to determine the free concentration of the compound of formula (I) in the left and right striatum of freely-moving adult male mice after oral administration.
Adult male C57B1/6 mice (22-28 g; Envigo, the Netherlands) were used for the experiments. Following arrival, animals were housed in groups of 5 in polypropylene cages (40×50×20 cm) with wire mesh top in a temperature (22±2° C.) and humidity (55±15%) controlled environment on a 12 hour light cycle (07.00-19.00). Following surgery, animals were housed individually (cages 30×30×40 cm). Standard diet (SDS Diets, RM1 PL) and domestic quality mains water were available ad libitum.
Mice were anesthetized using isoflurane (2% and 500 mL/min O2). Before surgery, Finadyne (1 mg/kg, s.c.) was administered for analgesia during surgery and the post-surgical recovery period. A mixture of bupivacaine and epinephrine was used for local analgesia of the incision site.
The animals were placed in a stereotaxic frame (Kopf instruments, USA). MetaQuant microdialysis probes with a 3 mm exposed polyacrylonitrile membrane (MQ-PAN 33) were implanted bilaterally into the left and right striatum (coordinates for the tip of the probe: AP=+0.8 mm (to bregma), ML=+/−1.7 mm (to midline), DV=−4.0 mm (to dura) with an angle of 0° and the incisor bar set at 0.0 mm. All coordinates were based on “The mouse brain in stereotaxic coordinates” by Paxinos and Franklin (2008). The probes were attached to the skull with a stainless-steel screw and dental cement.
The monosodium salt of the compound of formula (I) was formulated in sterilized tap water at concentrations (with respect to the non-salt form) of 0.2 and 4 mg/mL for oral dosing at 5 mL/kg; 1 mg/kg and 20 mg/kg, respectively.
The MetaQuant microdialysis probes were connected with flexible PEEK tubing (Western Analytical Products Inc. USA; PK005-020) to a microperfusion pump (Harvard) and perfused with a slow flow of artificial CSF (perfusate), containing 147 mM NaCl, 3.0 mM KCl, 1.2 mM CaCl2, and 1.2 mM MgCl2, at a flow rate of 0.12 μL/min and a carrier flow of UP+0.02 M FA+0.04% ascorbic acid at o.8 μL/min. After a minimum of two hours of prestabilisation, microdialysis samples were collected in 60 minute intervals. Following collection of two baseline samples, the compound of formula (I) (1 or 20 mg/kg in sterilised tap water) was administered orally at t=0 minutes. Samples were collected into mini-vials (Microbiotech/se AB, Sweden; 4001029) using an automated fraction collector (UV 8301501, TSE, Univentor, Malta). At the end of the experiment, the animals were sacrificed.
Microdialysate samples from MetaQuant probes contained a nominal volume of 55.2 μL dialysate. Levels of the compound of formula (I) in MetaQuant microdialysate samples were quantified by LC-MS/MS.
The dialysate samples were mixed with acetonitrile and an aliquot of this mixture was injected into the LC system by an automated sample injector (SIL-20AD, Shimadzu, Japan). Calibrators and in-run QC samples were prepared in analytical dialysate of the same composition as the microdialysate samples. […]
Suitable in-run calibration curves were fitted using weighted (1/x) regression and the sample concentrations were determined using these calibration curves. […]

[2] = test system: PFF-Synuclein model of Parkinson's disease; assay: Study H: rotarod test in the PFF-Synuclein mouse model; type: in vivo, C57BL6 mice; conditions: 4, 6, 8 and 10 months
Excerpt: To determine the oral efficacy of the compound of formula (I) in a chronic progressive model of Parkinson's disease (PD), the preformed fibrils (PFF) mouse model, using a prophylactic and therapeutic dosing schedule.
8-week-old C57BL6 male mice (obtained from ARC, Perth, Australia) were housed under a 12-h light cycle in a SPF climate-controlled facility with food and water provided ad libitum for two weeks prior to study initiation. The compound of formula (I) (or water alone for control animals) was administrated to mice in drinking water at 0.3 mg/ml. Animals were separated into the groups described in Table 9, with ten animals initiated in each cohort. […]
Recombinant human a-synuclein was obtained from rPeptide Inc., and in vitro fibril generation was performed with a final concentration of 2 mg/ml in phosphate-buffered saline (PBS) by incubation at 37° C. with agitation in an orbital mixer (400 rpm) for 7 days with daily cycles of sonication used to break down fibrillar aggregates as outlined in previously published reports (see Luk et al., Science, 2012, vol. 338(6109), pp. 949-53; and Zhang et al., Methods Mol. Biol., 2019, vol. 1948, pp. 45-57, which are incorporated in their entirety herein by reference). The generation of fibrillar α-synuclein species was confirmed by transmission electron microscopy and Thioflavin T fluorescence prior to use. […]

Q: Which “average peak levels in left and right striatal dialysate” value ([1]; 1 mg/kg oral (monosodium salt in sterilised tap water)) does the source give for `CC(C)n1ccc(S(=O)(=O)NC(=O)Nc2c3c(cc4c2CCC4)CCC3)n1` [compound of formula (I)] here?
A: The value was 12 to 13 nM.

Q: And the “time of average peak levels after compound administration” value ([1]; 1 mg/kg oral)?
A: The value was 5 h.

Q: What about the “average peak levels in left and right striatal dialysate” value ([1]; 20 mg/kg oral (monosodium salt in sterilised tap water)) of the same molecule?
A: The value was 201 to 243 nM.

Q: What about the “time of average peak levels after compound administration” value ([1]; 20 mg/kg oral) of the same molecule?
A: The value was 6 h.

Q: And the blood-brain barrier penetration ([1]; oral administration)?
A: The blood-brain barrier penetration was “cross the blood-brain barrier following oral administration”.

Q: What about the “performance on the rotarod” value ([2]; prophylactic: 0.3 mg/ml in drinking water from 24 h before PFF injection) of the same molecule?
A: The value was “improved performance on the rotarod”.

Q: And the “performance on the rotarod” value ([2]; therapeutic: 0.3 mg/ml in drinking water from 4 months after PFF injection)?
A: The value was “improved performance on the rotarod”.
